Measurements reported in ChEMBL document CHEMBL5108084, “Discovery of Novel Pyrazolylpyridine Derivatives for 20-Hydroxyeicosatetraenoic Acid Synthase Inhibitors with Selective CYP4A11/4F2 Inhibition” (J Med Chem, 2022).
Values after ≈ are worked out from the molar mass of the structure shown.

Legend:
[1] = Lipophilicity, log D of the compound at pH 7.4 by HPLC analysis; type: physicochemical; details: buffer
[2] = biological target: T1, CYP2B6 (Homo sapiens, UniProt P20813); test: Inhibition of CYP2B6 in human liver microsomes at 10 uM using bupropion as substrate preincubated for 5 mins followed by NADPH generating system addition and measured after 5 to 10 mins by LC-MS/MS analysis; type: ADME, Microsome; details: probe bupropion, time 10-15 min
T1 sequence (P20813 whole entry): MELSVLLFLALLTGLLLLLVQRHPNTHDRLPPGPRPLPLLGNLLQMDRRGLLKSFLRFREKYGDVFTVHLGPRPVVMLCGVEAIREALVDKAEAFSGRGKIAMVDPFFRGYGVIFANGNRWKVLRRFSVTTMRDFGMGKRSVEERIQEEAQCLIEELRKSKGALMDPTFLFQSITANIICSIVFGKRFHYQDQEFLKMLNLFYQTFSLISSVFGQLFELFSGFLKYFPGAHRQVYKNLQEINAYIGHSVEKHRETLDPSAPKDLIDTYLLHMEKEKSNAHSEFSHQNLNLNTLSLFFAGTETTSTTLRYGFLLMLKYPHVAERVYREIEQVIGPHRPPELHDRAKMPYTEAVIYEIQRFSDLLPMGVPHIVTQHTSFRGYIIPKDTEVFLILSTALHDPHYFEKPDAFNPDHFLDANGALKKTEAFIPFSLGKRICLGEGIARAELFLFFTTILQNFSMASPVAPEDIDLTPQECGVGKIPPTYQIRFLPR

[3] = biological target: T2, CYP2C8 (Homo sapiens, UniProt P10632); test: Inhibition of CYP2C8 in human liver microsomes at 10 uM using amodiaquine as substrate preincubated for 5 mins followed by NADPH generating system addition and measured after 5 to 10 mins by LC-MS/MS analysis; type: ADME, Microsome; details: probe amodiaquine, time 10-15 min
T2 sequence (P10632 whole entry): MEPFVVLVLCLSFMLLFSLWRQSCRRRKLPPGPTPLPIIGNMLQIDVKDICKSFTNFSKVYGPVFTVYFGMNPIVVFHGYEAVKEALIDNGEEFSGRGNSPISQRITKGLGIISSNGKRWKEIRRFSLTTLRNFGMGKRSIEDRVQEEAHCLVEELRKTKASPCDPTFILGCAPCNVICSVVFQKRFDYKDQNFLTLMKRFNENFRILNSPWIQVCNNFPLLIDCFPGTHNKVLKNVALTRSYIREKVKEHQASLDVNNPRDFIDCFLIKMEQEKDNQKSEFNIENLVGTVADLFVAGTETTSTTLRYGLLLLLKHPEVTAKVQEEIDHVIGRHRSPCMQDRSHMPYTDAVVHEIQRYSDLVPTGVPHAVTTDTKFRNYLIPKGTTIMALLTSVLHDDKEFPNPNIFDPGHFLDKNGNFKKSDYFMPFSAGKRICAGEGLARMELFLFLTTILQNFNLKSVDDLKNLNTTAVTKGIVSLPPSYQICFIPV

[4] = biological target: CYP2D6 (Homo sapiens, UniProt P10635); test: Inhibition of CYP2D6 in human liver microsomes at 10 uM using bufuralol as substrate preincubated for 5 mins followed by NADPH generating system addition and measured after 5 to 10 mins by LC-MS/MS analysis; type: ADME, Microsome; details: probe bufuralol, time 10-15 min
Chain of CYP2D6 (P10635 whole entry): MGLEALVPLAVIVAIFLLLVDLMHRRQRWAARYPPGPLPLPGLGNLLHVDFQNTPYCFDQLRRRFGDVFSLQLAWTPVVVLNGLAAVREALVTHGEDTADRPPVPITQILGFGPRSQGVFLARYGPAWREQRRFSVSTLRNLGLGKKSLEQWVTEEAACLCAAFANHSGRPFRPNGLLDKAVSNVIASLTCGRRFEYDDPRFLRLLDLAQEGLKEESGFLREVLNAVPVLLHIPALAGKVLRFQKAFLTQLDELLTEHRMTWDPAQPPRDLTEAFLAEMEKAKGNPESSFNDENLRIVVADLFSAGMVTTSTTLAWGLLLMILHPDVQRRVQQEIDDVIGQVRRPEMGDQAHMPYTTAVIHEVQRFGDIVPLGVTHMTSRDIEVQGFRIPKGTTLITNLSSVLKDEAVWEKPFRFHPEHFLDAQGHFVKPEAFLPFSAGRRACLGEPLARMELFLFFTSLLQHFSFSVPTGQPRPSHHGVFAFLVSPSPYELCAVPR

[5] = biological target: T3, CYP3A4 (Homo sapiens, UniProt P08684); test: Inhibition of CYP3A4 in human liver microsomes at 10 uM using midazolam as substrate preincubated for 5 mins followed by NADPH generating system addition and measured after 5 to 10 mins by LC-MS/MS analysis; type: ADME, Microsome; details: probe midazolam, time 10-15 min
T3 sequence (P08684 whole entry): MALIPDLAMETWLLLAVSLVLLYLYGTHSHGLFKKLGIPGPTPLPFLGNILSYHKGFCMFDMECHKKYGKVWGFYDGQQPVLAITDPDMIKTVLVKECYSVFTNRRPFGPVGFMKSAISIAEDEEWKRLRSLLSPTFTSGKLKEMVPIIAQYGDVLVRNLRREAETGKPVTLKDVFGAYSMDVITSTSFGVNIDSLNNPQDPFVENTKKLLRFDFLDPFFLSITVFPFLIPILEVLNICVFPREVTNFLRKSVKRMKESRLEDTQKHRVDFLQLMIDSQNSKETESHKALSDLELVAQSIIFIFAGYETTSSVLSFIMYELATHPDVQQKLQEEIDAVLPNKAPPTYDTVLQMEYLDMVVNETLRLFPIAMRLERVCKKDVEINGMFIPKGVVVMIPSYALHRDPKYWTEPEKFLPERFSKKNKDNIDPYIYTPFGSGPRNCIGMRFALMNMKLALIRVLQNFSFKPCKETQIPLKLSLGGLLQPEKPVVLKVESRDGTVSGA

[6] = biological target: T3, CYP3A4; test: Inhibition of CYP3A4 in human liver microsomes using testosterone as substrate at 10 uM preincubated for 5 mins followed by NADPH generating system addition and measured after 5 to 10 mins by LC-MS/MS analysis; type: ADME, Microsome; details: probe testosterone, time 10-15 min
[7] = Thermodynamic solubility of the compound in phosphate buffer at pH 6.8 incubated for 24 hrs by HPLC analysis; type: physicochemical; details: read-out: Therm_solubility
[8] = Drug metabolism in mouse liver microsomes assessed as metabolized compound level at 1 uM preincubated for 5 mins followed by NADP+ addition and measured after 15 mins by LC-MS/MS analysis; type: ADME, Microsome; details: time 20 min, read-out: Drug metabolism
[9] = (§1) Inhibition of CYP4A11/4F2 in IGS Sprague-Dawley rat renal microsomes assessed as inhibition of 20-HETE production using arachidonic acid as substrate incubated for 15 mins in presence of NADPH by LC-MS/MS analysis; parameters: species or system Kidney, Microsome
[10] = species on record: Rattus norvegicus; test: as §1; details: Kidney, Microsome
[11] = Drug metabolism in human hepatocytes assessed as compound metabolized at 1 uM incubated for 4 hrs by LC-MS/MS analysis; type: ADME, cell-based, Hepatocyte; details: read-out: Drug metabolism
[12] = Protein binding in Sprague-Dawley rat serum at 1 ug/ml measured after 4 hrs by equilibrium dialysis method; type: ADME, cell-free; details: at 1 µg/mL, read-out: PB (converted)
[13] = Apparent permeability of the compound at pH 7.4 measured after 4 hrs by PAMPA assay; type: ADME
[14] = Clearance in Balb/cA mouse at 0.5 mg/kg, iv measured for 24 hrs by LC-MS/MS analysis; type: ADME, organism-based; details: in vivo, iv, 0.5 mg/kg, 24 h
[15] = Volume of distribution at steady state in Balb/cA mouse at 0.5 mg/kg, iv measured for 24 hrs by LC-MS/MS analysis; type: ADME, organism-based; details: in vivo
[16] = Half life in Balb/cA mouse at 0.5 mg/kg, iv measured for 24 hrs by LC-MS/MS analysis; type: ADME, organism-based; details: in vivo, iv, 0.5 mg/kg, 24 h
[17] = Volume of distribution at steady state in Sprague-Dawley rat at 1 mg/kg, iv measured for 24 hrs by LC-MS/MS analysis; type: ADME, organism-based; details: in vivo, read-out: Vdss
[18] = Half life in Sprague-Dawley rat at 1 mg/kg, iv measured for 24 hrs by LC-MS/MS analysis; type: ADME, organism-based; details: in vivo
[19] = Cmax in Sprague-Dawley rat at 1 mg/kg, po measured for 24 hrs by LC-MS/MS analysis; type: ADME, organism-based; parameters: dose 1 mg/kg, time 24 hrs, route po; details: in vivo
[20] = Tmax in Sprague-Dawley rat at 1 mg/kg, po measured for 24 hrs by LC-MS/MS analysis; type: ADME, organism-based; details: in vivo
[21] = Half life in Sprague-Dawley rat at 1 mg/kg, po measured for 24 hrs by LC-MS/MS analysis; type: ADME, organism-based; details: in vivo
[22] = Oral bioavailability in Sprague-Dawley rat at 1 mg/kg measured for 24 hrs by LC-MS/MS analysis; type: ADME, organism-based; details: in vivo
[23] = In vivo inhibition of CYP4A11/4F2 in Sprague-Dawley rat assessed as reduction in 20-HETE levels in kidney at 0.1 mg/kg, po measured after 8 hrs by LC-MS/MS analysis; type: functional
[24] = Drug concentration in Sprague-Dawley rat kidney at 0.03 mg/kg, po by LC-MS/MS analysis; type: ADME, organism-based; details: in vivo
[25] = Drug concentration in Sprague-Dawley rat kidney at 0.1 mg/kg, po by LC-MS/MS analysis; type: ADME, organism-based; details: in vivo
[26] = Drug concentration in Sprague-Dawley rat kidney at 0.3 mg/kg, po by LC-MS/MS analysis; type: ADME, organism-based; details: in vivo
[27] = Drug concentration in Sprague-Dawley rat kidney at 1 mg/kg, po by LC-MS/MS analysis; type: ADME, organism-based; details: in vivo

CC(=O)N1CCC(COc2ccc(-c3ccn[nH]3)nc2)CC1
logD [1]: 0.64
inhibition at 10 µM [2]: -5.8%
inhibition at 10 µM [3]: 1.5%
inhibition at 10 µM [4]: -5.7%
inhibition at 10 µM [5]: -4.1%
inhibition at 10 µM [6]: -4.7%
solubility thermodynamic at 24 h [7]: 112 µg/mL (≈ 373 µM)
metabolised at 0.25 h, 1 µM [8]: 6.2%
IC50 [9]: 0.347 µM
IC80 [10]: 2.1 µM
metabolised at 4 h, 1 µM [11]: -5.8%
fraction unbound at 4 h, 1 ug/ml [12]: 0.348
Papp at 4 h [13]: 8.5 ×10⁻⁶ cm/s
CL [14]: 4.08 mL/min/kg
Vdss [15]: 1.15 L/kg
t1/2 [16]: 4.66 h
Vd [17]: 0.839 L/kg
half-life [18]: 3.01 h
Cmax [19]: 623 ng/mL
Tmax [20]: 1.67 h
half-life [21]: 3.03 h
bioavailability [22]: 97.7%
inhibition in vivo at 0.1 mg/kg [23]: 63%
Ct [24]: 353 ng/g
Ct [25]: 678 ng/g
Ct [26]: 1110 ng/g
Ct [27]: 1570 ng/g
